Consider 5 molecules from publication PMC6315490, “Angucycline Glycosides from an Intertidal Sediments Strain Streptomyces sp. and Their Cytotoxic Activity against Hepatoma Carcinoma Cells” (Marine Drugs, 2018).

Molecules are shown by their SMILES. “Also recorded” adds a separate entry of the source.

Holding throughout (assay type): cell-based
The test system of data set [1] is hepatoma carcinoma plc-prf-5 cells. Put plainly: MTT cytotoxicity assay, plc-prf-5. To be noted: Homo sapiens, MTT method. On the procedure: (§1) Though, the distinct in vivo toxicity restricted the further development of these compounds to be clinical drugs. Recently, an atypical angucycline, lomaiviticin A, was reported to be under preclinical evaluation for antitumor treatment due to its prominent cytotoxicity and effects of inducing double-strand breaks in DNA [14, 23]. In present work, 1–4 were assayed for their cytotoxic activity against normal liver cell LO2, hepatoma carcinoma HepG-2, SMMC-7721 and plc-prf-5 cell lines by 3-(4,5-dimethylthiazol-2-yl)-2,5-diphenyltetrazolium bromide (MTT) method (Table 2).
(§2) The cytotoxicity evaluations of 1–4 against normal liver cell and hepatoma carcinoma cells were carried out using the 3-(4,5-dimethylthiazole-2-yl)-2,5-diphenyltetrazolium bromide (MTT) assay. Doxorubicin was used as positive control drug and deionized H2O with the same DMSO concentration was used as parallel control. DAPI staining test was employed to qualitatively observe apoptosis, and the apoptotic ratio was measured by flow cytometric analysis (Becton Dickinson FACScan, San Jose, CA, USA). These tests were conducted using the methods as previously described.
A general note: Formazan colour is commonly taken as a measure of viable cells.

Data set [2] has as its system hepatoma carcinoma HepG-2 cells. Nature of the data set: MTT cytotoxicity assay, HepG-2. To be noted: Homo sapiens, HepG2, MTT method. Here is the method: as §1, §2
Data set [3] in a line: MTT cytotoxicity assay, normal liver cell LO2. To be noted: human; MTT method; LO2 normal liver cells. On the procedure:
as §1, §2

Data set [4] deals with hepatoma carcinoma SMMC-7721 cells. Nature of the data set: MTT cytotoxicity assay, SMMC-7721. The note with it: Homo sapiens, MTT method. Here is the method: as §1, §2
In data set [5] the test system is SMMC-7721 cells. Nature of the data set: Flow cytometric analysis of apoptosis. To be noted: Figure 5b. Here is the method: as §1
(§3) Figure 5 (a) Fluorescence micrographs of untreated and saquayamycin B-treated SMMC-7721 cells (24 h) stained with DAPI, Magnification: 100×; (b) Quantification of saquayamycin B-induced apoptosis in SMMC-7721 cell using flow cytometric analysis. ** p < 0.01 versus saquayamycin B 0 μM group. […]
(§4) The cytotoxicity evaluations of 1–4 against normal liver cell and hepatoma carcinoma cells were carried out using the 3-(4,5-dimethylthiazole-2-yl)-2,5-diphenyltetrazolium bromide (MTT) assay. […] DAPI staining test was employed to qualitatively observe apoptosis, and the apoptotic ratio was measured by flow cytometric analysis (Becton Dickinson FACScan, San Jose, CA, USA). […]

The subject of data set [6] is SMMC-7721 cells. Put plainly: DAPI staining test for apoptosis. The note with it: 0.025 to 0.100 μM for 24 h. Here is the method: as §1, §3, §4

Regarding `Cc1cc(O)c2c3c(cc(O)c2c1)C(=O)c1c(ccc(C2CC4OC5CC(=O)C(C)OC5OC4C(C)O2)c1O)C3=O` (stereo not shown) [Compound 1, landomycin N], the half-maximal inhibitory concentration (IC50) in data set [1], in data set [2], in data set [3] and in data set [4] was greater than 40000 nM in each case.
On to `Cc1cc(O)c2cc3c(c(O)c2c1)C(=O)c1ccc(C2CC4OC5CC(=O)C(C)OC5OC4C(C)O2)c(O)c1C3=O` (stereo not shown) [Compound 2, galtamycin C], for which the IC50 in data set [1], in data set [2], in data set [3] and in data set [4] was greater than 40000 nM throughout.
Consider `CC1OC(OC2CCC(OC(C)(CC(=O)O)Cc3ccc4c(c3O)C(=O)c3ccc(C5CC6OC7CC(=O)C(C)OC7OC6C(C)O5)c(O)c3C4=O)OC2C)C=CC1=O` (stereo not shown) [Compound 3, vineomycin D], for which the IC50 in data set [1], in data set [2], in data set [3] and in data set [4] was greater than 40000 nM each time.
As for `CC1OC(OC2CCC(OC3(C)CC(=O)C4(O)C5=C(C=CC4(O)C3)C(=O)c3c(ccc(C4CC6OC7CC(=O)C(C)OC7OC6C(C)O4)c3O)C5=O)OC2C)C=CC1=O` (stereo not shown) [Compound 4, saquayamycin B], the IC50 in data set [1] turned out to be 244 ± 1 nM; in data set [2] it was 135 ± 56 nM; in data set [3], 343 ± 81 nM; in data set [4] it was 33 ± 5 nM. Also, the “Apoptotic ratio of SMMC-7721 cells (flow cytometry), concentration dependence” value in data set [5] was “dependent on the concentrations of saquayamycin B”. The “Apoptosis by morphological characteristics in DAPI staining” value in data set [6] was “chromatin dispersion and formation of apoptotic body; also recorded: induced apoptosis in SMMC-7721 cells”.
With `COc1cccc2c1C(=O)c1c(O)c3c(c(O)c1C2=O)C[C@@](O)(C(=O)CO)C[C@@H]3O[C@H]1C[C@H](N)[C@H](O)[C@H](C)O1` [Doxorubicin, reference compound], the IC50 in data set [1] amounted to 1030 ± 990 nM; in data set [2], 919 ± 599 nM; in data set [3] it was 2260 ± 160 nM; in data set [4], 706 ± 4 nM.

Broadly, the IC50 is the concentration that inhibits the measured activity by half. Higher therefore signals a need for much substance.
